This is an account of results in publication PMC8571282 (Nature Communications, 2021).

A short description of data set [1]: Toxicity-testing across the cell panel (range). The following applies: human, African green monkey, hamster.
The conditions of data set [2]: dogs, reported; cited from earlier work.
A short description of another data set: in vitro. The following applies: human, % cell viability, HEp-2, 3.704 µM, 72 h.
The nature of data set [3]: Cytotoxicity assay (PrestoBlue), “F3” HAE. The following applies: human.
Another data set in a line: in vivo. The following applies: iv, 20 mg/kg.

Some results are limits rather than exact numbers.

`N#C[C@@]1(c2ccc3c(N)ncnn23)O[C@H](CO)[C@@H](O)[C@H]1O` [GS-441524]: in data set [1], the half-maximal cytotoxic concentration (CC50) (commonly the concentration that lowers cell viability or growth by half) at 72 h is greater than 100 µM. Moreover, the oral availability in data set [2] was 89%. In addition, in the data set “in vitro”, the viability (usually a per cent measure of how many cells are alive, often set against a control) at 72 h, 3.704 µM turned out to be 93%. Moreover, the viability at 72 h, 0.046 µM in data set [3] (female, “F3” primary human airway epithelial (HAE) cells, % cell viability, F3 HAE, 0.046 µM) worked out at 87%. Further, the viability at 72 h, 100 µM in data set [3] (% cell viability, F3 HAE, 100 µM) turned out to be 84%. The molecule also returned a CC50 at 72 h in data set [3] (CC50, “F3” HAE) greater than 100 µM. For the same molecule, in “in vivo”, the AUC(0-t) (commonly exposure summed from dosing to a finite time, without extrapolation to infinity) was determined as 81.1 µM·h; the peak concentration (Cmax) (usually the peak of the concentration-time curve) was 54.2 µM; the clearance (as a rule, the rate of elimination divided by the concentration) is 14.3 mL/min/kg; the half-life – broadly, how long it takes for the measured level to halve – is 3.4 h.
